Laboratory results taken from patent US20080103189A1, “PREPARATION AND UTILITY OF SUBSTITUTED INDOLES” (Auspex Pharmaceuticals, Inc., priority 2006, published 2008).

Conditions: topical or ocular, 5 microgram per mL
Protocol: Liver microsomal stability assays were conducted at 1 mg per mL liver microsome protein with an NADPH-generating system in 2% NaHCO3 (2.2 mM NADPH, 25.6 mM glucose 6-phosphate, 6 units per mL glucose 6-phosphate dehydrogenase and 3.3 mM MgCl2). Test compounds were prepared as solutions in 20% acetonitrile-water and added to the assay mixture (final assay concentration 5 microgram per mL) and incubated at 37° C. Final concentration of acetonitrile in the assay were <1%. Aliquots (50 μL) were taken out at times 0, 15, 30, 45, and 60 minutes, and diluted with ice cold acetonitrile (200 μL) to stop the reactions. Samples were centrifuged at 12000 RPM for 10 minutes to precipitate proteins. Supernatants were transferred to microcentrifuge tubes and stored for LC/MS/MS analysis of the degradation half-life of the test compounds.

In the case of `[2H]C([2H])(Cc1c[nH]c2ccc(CS(=O)(=O)N3CCCC3)cc12)N(C)C`, the “increase in the degradation half-life as compared to the non-isotopically enriched drug” value is reported as 20-250%.
